In PubChem BioAssay (NCI):
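Five concentrations, 48 hours, 96-well plates. GI50 = concentration required for 50% inhibition of growth. TGI: total growth inhibition.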

What was measured:
Experiment in all cases: NCI-60 cell line screen, 48 h
UO-31 renal = tested on: UO-31 renal
NCI-H522 lung = tested on: NCI-H522 lung
NCI-H23 lung = tested on: NCI-H23 lung
OVCAR-4 ovarian = tested on: OVCAR-4 ovarian
HOP-92 NSCLC = tested on: HOP-92 NSCLC
TK-10 renal = tested on: TK-10 renal
M14 melanoma = tested on: M14 melanoma
IGROV1 ovarian = tested on: IGROV1 ovarian
SN12C renal = tested on: SN12C renal
SK-OV-3 ovarian = tested on: SK-OV-3 ovarian

Structure (SMILES)	GI50 (UO-31 renal)	TGI (UO-31 renal)	GI50 (NCI-H522 lung)	TGI (NCI-H522 lung)	GI50 (NCI-H23 lung)	TGI (NCI-H23 lung)	GI50 (OVCAR-4 ovarian)	TGI (OVCAR-4 ovarian)	GI50 (HOP-92 NSCLC)	TGI (HOP-92 NSCLC)	GI50 (TK-10 renal)	TGI (TK-10 renal)	GI50 (M14 melanoma)	TGI (M14 melanoma)	GI50 (IGROV1 ovarian)	TGI (IGROV1 ovarian)	TGI (SN12C renal)	TGI (SK-OV-3 ovarian)	GI50 (SN12C renal)	GI50 (SK-OV-3 ovarian)
OCc1c(-c2cccs2)oc(-c2cccs2)c1CO	50.5 µM	> 100 µM	39.1 µM	> 100 µM	38.7 µM	> 100 µM	> 100 µM	> 100 µM	42.8 µM	> 100 µM	10.2 µM	56.7 µM	47.8 µM	> 100 µM	58.3 µM	> 100 µM				
COC1CCCc2c(OC(C)=O)ccc(OC(C)=O)c21 (stereo not given)		> 100 µM				> 100 µM		> 100 µM		34.1 µM		> 100 µM		> 100 µM		> 100 µM	> 100 µM	> 100 µM		
CN(C)CCNC(=O)c1ccc2c(c1)oc1cc3ccccc3c(=O)n12	15.1 µM	30.8 µM			31.8 µM	> 100 µM			9.78 µM	38.4 µM	12.9 µM	31.4 µM	18.6 µM	32.6 µM	10.6 µM	26.4 µM	30.6 µM	30.9 µM	15.4 µM	13.8 µM
CNC(=O)[C@H](Cc1c[nH]c2ccccc12)NC(=O)[C@@H](CC(=O)NO)CC(C)C	> 25 µM	> 25 µM	> 25 µM	> 25 µM	> 25 µM	> 25 µM	> 25 µM	> 25 µM			> 25 µM	> 25 µM	> 25 µM	> 25 µM	> 25 µM	> 25 µM	> 25 µM	> 25 µM	> 25 µM	> 25 µM
O=C(Nc1cc(Cl)c(I)c(Cl)c1)C(F)(F)F		73.7 µM		42.2 µM		70.8 µM		> 100 µM		46.9 µM				60.3 µM		> 100 µM	> 100 µM	58.9 µM		
O=c1[nH]c2nc3ccccc3c(=O)n2nc1Cc1ccccc1		> 100 µM		> 100 µM		> 100 µM		> 100 µM						> 100 µM		> 100 µM	> 100 µM	> 100 µM		
COc1ccccc1/C=C1\C(=O)N(C(=O)Cc2ccccc2)N=C1C		> 100 µM		> 100 µM		> 100 µM		> 100 µM				> 100 µM		> 100 µM			> 100 µM			
CC(C)(C)OC(=O)N(CCCCN(CCCn1c2c(c3ccccc3c1=O)C(=O)c1ccccc1-2)C(=O)OC(C)(C)C)CCCn1c2c(c3ccccc3c1=O)C(=O)c1ccccc1-2	28.4 µM	> 100 µM	26.2 µM	> 100 µM	25 µM	> 100 µM	> 100 µM	> 100 µM	97 µM	> 100 µM	> 100 µM	> 100 µM	31.3 µM	> 100 µM			> 100 µM	> 100 µM	36 µM	> 100 µM
COCN1COCN(C)C1=O		> 100 µM				> 100 µM		> 100 µM		> 100 µM		> 100 µM		> 100 µM		> 100 µM	> 100 µM	> 100 µM		
COc1ccc(-c2nc(NC(=O)CS(=O)(=O)c3ccc(F)cc3)sc2C)cc1	18.9 µM	92 µM			27.9 µM	> 100 µM	31 µM	> 100 µM	14.2 µM	48 µM	28.9 µM	81.2 µM	19.1 µM	55.7 µM	28.2 µM	> 100 µM	52.5 µM	> 100 µM	19 µM	24.1 µM
COc1ccc2c(=O)c(-c3cc(OC)c(OC)cc3OC)coc2c1		> 100 µM		5.44 µM		> 100 µM		> 100 µM				> 100 µM		> 100 µM		> 100 µM	> 100 µM	> 44.1 µM		
O=C(NCCCN1CCN(CCCNC(=O)c2cccc3ccccc23)CC1)c1cccc2ccccc12		> 100 µM				> 100 µM		> 100 µM		21.3 µM		> 100 µM		> 100 µM		> 100 µM	> 100 µM	57.6 µM		
S=C1SCC2CCCN12 (stereo not given)		> 100 µM		> 100 µM				> 100 µM		> 100 µM		> 100 µM		> 100 µM		> 100 µM	> 100 µM	> 100 µM		
O=C(c1ccccc1)c1nc2c(Cl)ccc(Cl)c2cc1C(Br)Br		2.56 µM		2.9 µM				3.48 µM				2.81 µM		2.89 µM		12.4 µM				
C=CCCC(O)c1cc(C)c(O)c(C)c1 (stereo not given)		> 100 µM		> 100 µM		> 100 µM						> 100 µM		> 100 µM		> 100 µM	> 100 µM	> 100 µM		
N[C@H]1CCC[C@@H](O)C1O (stereo not given in full)		> 100 µM		> 100 µM		> 100 µM								> 100 µM		> 100 µM	> 100 µM	> 100 µM		
CN(c1cccc(C(=O)O)c1)c1cc(O/N=[N+](\[O-])N(C)C)c([N+](=O)[O-])cc1[N+](=O)[O-]	> 100 µM	> 100 µM	> 100 µM	> 100 µM	> 100 µM	> 100 µM					> 100 µM	> 100 µM			> 100 µM	> 100 µM	> 100 µM		> 100 µM	
CN(C)Cc1ccc(NC(=O)c2cncc(C#Cc3cnc(N)c4ncccc34)c2)cc1C(F)(F)F	1.43 µM	2.8 µM	1.93 µM	4.07 µM	1.25 µM	2.68 µM	1.16 µM	2.56 µM	1.04 µM	4.66 µM	1.81 µM	3.31 µM	0.0802 µM	1.33 µM	1.47 µM	2.97 µM	3.02 µM		1.54 µM	
N#CN1CC[C@@H]2CC3(CCC2C1)OCCO3 (stereo not given in full)		> 100 µM				> 100 µM		> 100 µM		> 100 µM		> 100 µM		> 100 µM		> 100 µM	> 100 µM	> 100 µM		
